According to paper PMC7321065, “Discovery of New Schiff Bases Tethered Pyrazole Moiety: Design, Synthesis, Biological Evaluation, and Molecular Docking Study as Dual Targeting DHFR/DNA Gyrase Inhibitors with Immunomodulatory Activity” (Molecules, 2020):
In brackets after ≈: the same amount, converted by molar mass. Like-named read-outs stand apart in the source and are kept apart here.

How the values were obtained:
Enterococcus faecalis [1] = test: Inhibition zone, agar plate diffusion; type: cell-based; conditions: read-out: Inhibition zone (IZ)
Description: (§1) Antimicrobial activities of the newly formed Schiff bases (6a–d, 7a–d, 8a–d, and 9a–d) and reference drugs were evaluated against three Gram-positive, three Gram-negative, and two fungi strain at Al-Azhar University, Cairo, Egypt. The inhibition zones (IZ, in mm ± standard deviation) and the minimal inhibitory concentration (MIC) (μg/mL) were determined by the conventional paper disk diffusion method.
(§2) In Vitro Antimicrobial Activities
(§3) The antimicrobial activities inhibition zone (IZ, mm±standard deviation) of pyrazole Schiff bases ( 6a-d , 7a-d, 8a-d and 9a-d ) was measurement according to the agar plate diffusion method. Briefly, 100 µl of the […]
(§4) […] of each sample (at 0.5 mg/mL) was added to each well (10 mm diameter holes cut in the agar gel). The plates were incubated for 24 h at 37 °C (for bacteria and yeast) and for 72 h at 27 °C (for filamentous fungi), each test was repeated three times. After incubation, the microorganism's growth was observed. […]
(§5) drugs while Amphotericin B was used as standard antifungal drug. The resulting inhibition zone diameters were measured in millimeters and used as criterion for the antimicrobial activity. Solvent controls (DMSO) were included in every experiment as negative controls. DMSO was used for dissolving […]
(§6) the tested microorganisms. […]

Bacillus subtilis [2] = test: Inhibition zone, agar plate diffusion; type: cell-based; conditions: read-out: Inhibition zone (IZ)
Description: as §1, §2, §3, §4, §5, §6

Escherichia coli [3] = test: Inhibition zone, agar plate diffusion; type: cell-based; conditions: read-out: Inhibition zone (IZ)
Description: as §1, §2, §3, §4, §5, §6

Pseudomonas aeruginosa [4] = test: Inhibition zone, agar plate diffusion; type: cell-based; conditions: read-out: Inhibition zone (IZ)
Description: as §1, §2, §3, §4, §5, §6

Salmonella typhi [5] = test: Inhibition zone, agar plate diffusion; type: cell-based; conditions: Salmonella enterica, read-out: Inhibition zone (IZ)
Description: as §1, §2, §3, §4, §5, §6
(§7) Bacteria were grown on nutrient agar medium, while fungi and yeast were grown on Sabouraud agar medium. […]

Staphylococcus aureus [6] = test: Inhibition zone, agar plate diffusion; type: cell-based; conditions: read-out: Inhibition zone (IZ)
Description: as §1, §2, §3, §4, §5, §6, §7

Candida albicans [7] = test: Inhibition zone, agar plate diffusion; type: cell-based; conditions: read-out: Inhibition zone (IZ)
Description: as §1, §2, §3, §4, §5, §6, §7

Fusarium oxysporum [8] = test: Inhibition zone, agar plate diffusion; type: cell-based; conditions: read-out: Inhibition zone (IZ)
Description: as §1, §2, §3, §4, §5, §6, §7

Candida albicans [9] = test: MIC/MFC, paper disk diffusion; type: cell-based; conditions: Candida albicans, C. albicans
Description: as §1
(§8) In Vitro Antimicrobial Activities […]
(§9) DMSO was used for dissolving […]
(§10) the tested microorganisms.
(§11) The minimum inhibitory concentration (MIC), the minimum bactericidal concentration (MBC, µg/ml) and […]
(§12) and 9b) were determined by the conventional technique termed paper disk diffusion, by applying paper […]
(§13) Bacteria were grown on nutrient agar medium, while fungi and yeast were grown on Sabouraud agar medium. The purified streptomycin was dissolved in […]
(§14) inoculated with test organism. Growth inhibition was examined after 24 hr. from incubation at 37 °C for bacteria and after 72 hr. incubation at 27 °C for fungi and yeast. Each test was repeated three times. MIC was expressed as the lowest concentration inhibiting test organism’s growth. […]

Fusarium oxysporum [10] = test: MIC/MFC, paper disk diffusion; type: cell-based; conditions: Fusarium oxysporum, F. oxysporum
Description: as §1, §8, §9, §10, §11, §12, §13, §14

[11] = system: mammary gland breast cancer cell line (MCF-7); test: Antiproliferative activity, MTT assay; type: cell-based, human; conditions: Homo sapiens, MCF7; MTT, 48 h; read-out: IC50 MCF-7
Description: (§15) 3-[4, 5-Dimethyl-2-thiazolyl)-2, 5-diphenyl-2 H-tetrazolium bromide (MTT) protocol is based on the cleavage of the tetrazolium salt by mitochondrial dehydrogenases in viable cells. Cells were dispensed in a 96 well sterile microplate (5 x 10^4 cells/well), and incubated at 37 °C with series of different concentrations, in DMSO, of each tested compound or Doxorubicin ® (positive control) for 48 h in a serum free medium prior to the MTT assay. After incubation, media were carefully removed, 40 µL of MTT (2.5 mg/mL) were added to each well and then incubated for an additional 4 h. The purple formazan dye crystals were solubilized by the addition of 200 µL of DMSO. The absorbance was measured at 590 nm using a SpectraMax® Paradigm® Multi-Mode microplate reader. The relative cell viability was expressed as the mean percentage of viable cells compared to the untreated control cells.
(§16) All experiments were conducted in triplicate and repeated in three different days. All the values were represented as mean ± SD. IC 50s were determined by probit analysis using SPSS software program (SPSS

[12] = system: hepatocellular carcinoma cell line (HepG2); test: Antiproliferative activity, MTT assay; type: cell-based, human; conditions: Homo sapiens, HepG2; MTT, 48 h; read-out: IC50 HepG-2
Description: as §15, §16

Enterococcus faecalis [13] = test: MIC/MBC, paper disk diffusion; type: cell-based; conditions: E. faecalis
Description: as §1, §8, §9, §10, §11, §12, §13, §14

Salmonella typhi [14] = test: MIC/MBC, paper disk diffusion; type: cell-based; conditions: Salmonella enterica, TYPHI
Description: as §1, §8, §9, §10, §11, §12, §13, §14

Bacillus subtilis [15] = test: MIC/MBC, paper disk diffusion; type: cell-based; conditions: Bacillus subtilis, B. subtilis; read-out: MBC
Description: as §1, §8, §9, §10, §11, §12, §13, §14

Escherichia coli [16] = test: MIC/MBC, paper disk diffusion; type: cell-based; conditions: Escherichia coli, E. coli
Description: as §1, §8, §9, §10, §11, §12, §13, §14

Staphylococcus aureus [17] = test: MIC/MBC, paper disk diffusion; type: cell-based; conditions: Staphylococcus aureus, S. aureus
Description: as §1, §8, §9, §10, §11, §12, §13, §14

Pseudomonas aeruginosa [18] = test: MIC/MBC, paper disk diffusion; type: cell-based; conditions: Pseudomonas aeruginosa, P. aeruginosa
Description: as §1, §8, §9, §10, §11, §12, §13, §14

[19] = St, mm ± standard deviation, sample at 0.5 mg/mL
[20] = Ef, mm ± standard deviation, sample at 0.5 mg/mL
[21] = Bs, mm ± standard deviation, sample at 0.5 mg/mL
[22] = Ec, mm ± standard deviation, sample at 0.5 mg/mL
[23] = Pa, mm ± standard deviation, sample at 0.5 mg/mL
[24] = Sa, mm ± standard deviation, sample at 0.5 mg/mL
[25] = Ca, mm ± standard deviation, sample at 0.5 mg/mL
[26] = Fo, mm ± standard deviation, sample at 0.5 mg/mL

Structure (SMILES)	zone of inhibition at 500 µg/mL (Enterococcus faecalis [1]) [mm]	zone of inhibition at 500 µg/mL (Bacillus subtilis [2]) [mm]	zone of inhibition at 500 µg/mL (Escherichia coli [3]) [mm]	zone of inhibition at 500 µg/mL (Pseudomonas aeruginosa [4]) [mm]	zone of inhibition at 500 µg/mL (Salmonella typhi [5]; [19]) [mm]	zone of inhibition at 500 µg/mL (Staphylococcus aureus [6]) [mm]	zone of inhibition at 500 µg/mL (Candida albicans [7]) [mm]	zone of inhibition at 500 µg/mL (Fusarium oxysporum [8]) [mm]	other results
COc1ccc(Nc2n[nH]c(N=Cc3ccc(N4CCCCC4)cc3)c2C(=O)Nc2ccccc2)cc1 [8b, 3-(p-Methoxyphenylamino)-N-phenyl-5-(4-(piperidin-1-yl)benzylideneamino)-1H-pyrazole-4-carboxamide]	12 ± 0.74	15 ± 0.45	14 ± 0.21	< 8	15 ± 0.2	< 8	12 ± 0.65	< 8	–
C[C@@H]1[C@H](O)[C@@H](C)/C=C/C=C/C=C/C=C/C=C/C=C/C=C/[C@H](O[C@@H]2O[C@H](C)[C@@H](O)[C@H](N)[C@@H]2O)C[C@@H]2O[C@](O)(C[C@@H](O)C[C@@H](O)[C@H](O)CC[C@@H](O)C[C@@H](O)CC(=O)O[C@H]1C)C[C@H](O)[C@H]2C(=O)O [Amphotericin B, reference compound]	–	–	–	–	< 8	–	–	–	MFC (Candida albicans [9]; read-out: MFC): 34.6 µg/mL (≈ 37.5 µM); MIC (Candida albicans [9]; read-out: MIC): 15.6 µg/mL (≈ 16.9 µM); MFC (Fusarium oxysporum [10]; read-out: MFC): 65.6 µg/mL (≈ 71 µM); MIC (Fusarium oxysporum [10]; read-out: MIC): 31.2 µg/mL (≈ 33.8 µM); zone of inhibition at 500 µg/mL (Enterococcus faecalis [1]; [20]): < 8 mm; zone of inhibition at 500 µg/mL (Bacillus subtilis [2]; [21]): < 8 mm; zone of inhibition at 500 µg/mL (Escherichia coli [3]; [22]): < 8 mm; zone of inhibition at 500 µg/mL (Pseudomonas aeruginosa [4]; [23]): < 8 mm; zone of inhibition at 500 µg/mL (Staphylococcus aureus [6]; [24]): < 8 mm; zone of inhibition at 500 µg/mL (Candida albicans [7]; [25]): 22 ± 0.2 mm; zone of inhibition at 500 µg/mL (Fusarium oxysporum [8]; [26]): 18 ± 0.32 mm
COc1ccc(Nc2n[nH]c(N=Cc3ccc(N4CCCCC4)cc3)c2C(=O)Nc2ccc(C)cc2)cc1 [8c, 3-(p-Methoxyphenylamino)-5-(4-(piperidin-1-yl)benzylideneamino)-N-p-tolyl-1H-pyrazole-4-carboxamide]	25 ± 0.14	22 ± 0.41	18 ± 0.3	< 8	14 ± 0.52	17 ± 0.78	19 ± 0.65	< 8	–
COc1ccc(Nc2n[nH]c(N=Cc3c(C)n(C)n(-c4ccccc4)c3=O)c2C(=O)Nc2ccc(Cl)cc2)cc1 [6d, N-(4-Chlorophenyl)-5-((1,5-dimethyl-3-oxo-2-phenyl-2,3-dihydro-1H-pyrazol-4-yl)methyleneamino)-3-(p-methoxyphenylamino)-1H-pyrazole-4-carboxamide]	14 ± 0.47	13 ± 0.41	19 ± 0.33	12 ± 0.63	< 8	< 8	13 ± 0.2	< 8	–
COc1cccc2c1C(=O)c1c(O)c3c(c(O)c1C2=O)C[C@@](O)(C(=O)CO)C[C@@H]3O[C@H]1C[C@H](N)[C@H](O)[C@H](C)O1 [Doxorubicin, reference compound]	–	–	–	–	–	–	–	–	IC50 [11]: 1.94 ± 0.8 µM; IC50 [12]: 3.92 ± 0.5 µM
CN(C)[C@@H]1C(O)=C(C(N)=O)C(=O)[C@@]2(O)C(O)=C3C(=O)c4c(O)cccc4[C@@](C)(O)[C@H]3C[C@@H]12 [Tetracycline, reference compound]	–	–	–	–	–	–	–	–	zone of inhibition at 500 µg/mL (Enterococcus faecalis [1]; [20]): 22 ± 0.25 mm; zone of inhibition at 500 µg/mL (Bacillus subtilis [2]; [21]): 25 ± 0.22 mm; zone of inhibition at 500 µg/mL (Escherichia coli [3]; [22]): 23 ± 0.2 mm; zone of inhibition at 500 µg/mL (Pseudomonas aeruginosa [4]; [23]): 20 ± 0.5 mm; MBC (Enterococcus faecalis [13]; read-out: MBC): 93.8 µg/mL (≈ 211 µM); MIC (Enterococcus faecalis [13]; read-out: MIC): 62.5 µg/mL (≈ 141 µM); MBC (Salmonella typhi [14]): 43.8 µg/mL (≈ 98.4 µM); MBC (Bacillus subtilis [15]): 40.6 µg/mL (≈ 91.4 µM); MBC (Escherichia coli [16]; read-out: MBC): 18.7 µg/mL (≈ 42.2 µM); MIC (Escherichia coli [16]; read-out: MIC): 15.6 µg/mL (≈ 35.1 µM); MBC (Staphylococcus aureus [17]; read-out: MBC): 87.5 µg/mL (≈ 197 µM); MIC (Staphylococcus aureus [17]; read-out: MIC): 62.5 µg/mL (≈ 141 µM); MBC (Pseudomonas aeruginosa [18]; read-out: MBC): 87.5 µg/mL (≈ 197 µM); MIC (Pseudomonas aeruginosa [18]; read-out: MIC): 62.5 µg/mL (≈ 141 µM); zone of inhibition at 500 µg/mL (Salmonella typhi [5]): 21 ± 0.55 mm; zone of inhibition at 500 µg/mL (Staphylococcus aureus [6]; [24]): 25 ± 0.11 mm; zone of inhibition at 500 µg/mL (Candida albicans [7]; [25]): < 8 mm; zone of inhibition at 500 µg/mL (Fusarium oxysporum [8]; [26]): < 8 mm
COc1ccc(Nc2n[nH]c(N=Cc3c(C)n(C)n(-c4ccccc4)c3=O)c2C(=O)Nc2ccc(C)cc2)cc1 [6c, 5-((1,5-Dimethyl-3-oxo-2-phenyl-2,3-dihydro-1H-pyrazol-4-yl)methyleneamino)-3-(p-methoxyphenylamino)-N-p-tolyl-1H-pyrazole-4-carboxamide]	21 ± 0.54	20 ± 0.11	22 ± 0.43	< 8	15 ± 0.36	23 ± 0.29	17 ± 0.21	9 ± 0.35	–
COc1ccc(Nc2n[nH]c(N=Cc3c(C)nn(-c4ccccc4)c3Cl)c2C(=O)Nc2ccc(Cl)cc2)cc1 [7d, 5-((5-Chloro-3-methyl-1-phenyl-1H-pyrazol-4-yl)methyleneamino)-N-(p-chlorophenyl)-3-(p-methoxyphenylamino)-1H-pyrazole-4-carboxamide]	22 ± 0.35	23 ± 0.22	27 ± 0.3	17 ± 0.74	17 ± 0.12	24 ± 0.33	20 ± 0.5	15 ± 0.14	–
